According to patent US5385888A, “Class I MHC modulation or surface receptor activity” (The Regents of the University of California, priority 1993, dated 1995):
Values belong to the molecule of their own block, whether it stands above or below them. Where a SMILES comes first, the peptide text is derived from it.

Key:
rat adipocytes = assay type: cell-based
Description: (§1) Preparation of Adipocytes--The procedure has been described in detail previously. Briefly, male Wistar rats (100-150 g) were decapitated, and the epididymal fat pads removed and minced with scissors into KRHB (Krebs-Ringer/HEPES/Bovine serum albumin (BSA) buffer: 80 mM NaCl, 4.7 mM KCl, 2.5 mM CaCl2, 1.2 mM MgSO4, 50 mM HEPES, 5% BSA (Sigma, radioimmunoassay grade), pH 7.2) containing 5 mM D-glucose and 1 mg/ml collagenase (type I, Worthington) and digested (1 hr, 37° C.) with gentle shaking (250 cycles per minute). The adipocytes were washed five times in KRHB (each wash in a volume ten times the cell volume). The adipocyte layer was finally diluted with KRHB to a 10% (v/v) suspension as estimated by the volume of packed cells (lipocrit).
Glucose uptake in vitro--The uptake of [^14 C]glucose (D-[U-^14 C]glucose, Amersham, (300 Ci/mol)) by isolated rat adipocytes was measured as follows unless otherwise stated: 50 μl adipocyte cell suspension was pipetted into "Nunc-Immuno tube minisorp" (Nunc, Denmark) and preincubated at 37° C. with gentle shaking (225 cycles per minute) for 30 min. Hormones and peptides were added in 50 μl KRHB and incubated for 30 min at 37° C. Before addition to cells, all solutions were neutralized to pH 7.2. [^14 C]glucose tracer (~100,000 dpm) was added and the incubation continued for another 20 minutes at 37° C. The assay was terminated by centrifugation of 100 μl sample on top of 250 μl silicone oil (Thomas Scientific) in 500 μl tubes in a microfuge (10,000×g) for 1 min. The tube was cut just below the adipocyte layer and the amount of radioactivity in the adipocytes determined by scintillation counting. The precise concentration of [^14 C]glucose was calculated from total counts added.

purified human IR = molecular target: T1, purified human IR (Homo sapiens, UniProt P06213); assay: Tyrosine kinase activity of purified IR (autophosphorylation); assay type: biochemical
T1 construct: The product was a tetramer with two heavy chains, each ~130 kDa, and two light chains, each ~90 kDa; from tissue; host or cells: human placenta
Description: The purified human IR and the cloned cytoplasmic kinase domain (IRKD) have been described (Ellis et al., (1988) Virology 62:1634-39; Roth et al., (1986) J. Biol. Chem. 261:3753-57). Briefly, the human IR was purified from placenta by immunoaffinity columns, using monoclonal antibodies and binding of IR to wheat germ agglutinin. The product was a tetramer with two heavy chains, each ~130 kDa, and two light chains, each ~90 kDa. […] When peptide was used, it was added in 5.0 μl, the volume adjusted to 20 μl by adding buffer, and the mixture incubated (1 hr, 4° C.). After incubation, 10 μl of a solution containing 2.5 μCi ^32 P-labeled ATP (3,000 Ci/mmol; γ-labeled; Amersham) 50 mM HEPES, pH 7.6, 150 mM NaCl, 0.1% Triton X-100, 37.5 μM unlabeled ATP, 15 mM MgCl2, and 6 mm MnCl2 was added to a final volume of 30 μ l. The mixture was then incubated for 30 min. at 24° C. After incubation, 15 μl sample buffer was added, and the sample was boiled for 5 min., and run on 10% SDS-PAGE overnight. The gel was dried, and autoradiograms processed with an exposure time of 5-10 hr. For quantitative estimates the β-subunit band of IR and the IRKD bands were cut out and counted dry (Cerenkov) in a scintillation counter.

EGFR = molecular target: T2, EGFR (Rattus norvegicus, UniProt G3V6K6); assay: Cell-associated 125I-labeled EGF on rat adipocytes; assay type: binding
T2 construct: male Wistar rats (100-150 g) were decapitated, and the epididymal fat pads removed; endogenous in cells; host or cells: freshly isolated epididymal adipocytes of male Wistar rats
Description: as §1
Cell-associated ^125 I-labeled EGF--50 μl adipocyte cell suspension was pipetted into "Nunc-Immuno tube minisorp" (Nunc, Denmark) and preincubated at 37° C. with gentle shaking (225 cycles per minute) for 30 min. […] The assay was terminated by centrifugation of 75 μl sample as described above for glucose uptake, and the cell-associated as well as the free ^125 I-labeled EGF was determined by γ-counting. […] The data were calculated as specific cell-associated ^125 I-labeled EGF and the maximal value was in each experiment set to 100%.

rats = assay: Blood glucose levels in whole rats after i.v. injection; assay type: in vivo, rat; conditions: insulin alone 10 μg/kg i.v.
Description: The effect of D^k -(61-85) in whole rats was determined. […] All animals were starved 16-20 hrs. prior to experimentation. Each determination was based on results as obtained from 42 rats, where the same rats were used in the four treatment schedules. The schedules were a control, a peptide by itself, insulin by itself, and insulin plus peptide. […] The peptide, at about 20 min., the blood glucose had dropped to about 65% of its original value and then slowly rose back to about the original value at about 90 min. and was maintained about the same level.

Molecule: ACTH-(1-24): human ACTH-(1-24), routine control peptide, Peninsula Laboratories
Substrate for IR tyrosine Kinase (purified human IR): None of the control peptides (e.g. ACTH-(1-24) are substrates

Molecule: EGF: epidermal growth factor (mouse), Collaborative Research
Glucose uptake above basal (rat adipocytes; EGF alone): ~ 50%
Apparent affinity of specific cell-associated EGF (EGFR): low nanomolar range

Molecule: PDGF
Effect on glucose uptake in adipocytes (rat adipocytes; PDGF alone): no effect

Molecule: TGFα: TGFα (rat), Peninsula Laboratories
[14C]glucose uptake above basal (rat adipocytes; 50 nM TGFα alone): ~ 50%

Now from value to molecule, other results behind:

EC50 (rat adipocytes): 10 to 15 µM
Molecule: CC[C@H](C)[C@H](NC(=O)[C@H](CCC(N)=O)NC(=O)[C@@H](NC(=O)[C@H](CCC(=O)O)NC(=O)[C@H](CCCNC(=N)N)NC(=O)[C@@H](N)CCC(=O)O)[C@@H](C)O)C(=O)N[C@@H](C)C(=O)N[C@@H](CCCCN)C(=O)NCC(=O)N[C@@H](CC(N)=O)C(=O)N[C@@H](CCC(=O)O)C(=O)N[C@@H](CCC(N)=O)C(=O)N[C@@H](CO)C(=O)N[C@@H](Cc1ccccc1)C(=O)N[C@@H](CCCNC(=N)N)C(=O)N[C@H](C(=O)N[C@@H](CC(=O)O)C(=O)N[C@@H](CC(C)C)C(=O)N[C@@H](CCCNC(=N)N)C(=O)N[C@H](C(=O)N[C@@H](CC(C)C)C(=O)N[C@@H](CC(C)C)C(=O)N[C@@H](CCCNC(=N)N)C(=O)N[C@@H](Cc1ccc(O)cc1)C(=O)N[C@@H](Cc1ccc(O)cc1)C(=O)O)[C@@H](C)O)C(C)C [D^k-(61-85)] (H-ERETQIAKGNEQSFRVDLRTLLRYY-OH)

EC50 (purified human IR; insulin as stimulus): ~0.003 µM
Molecule: insulin: unlabeled porcine insulin (NOVO)
Blood glucose course compared with peptide alone (rats): A similar result
